Measured values reported in article PMC11236999, “Antagonism of propofol anesthesia by alkyl-fluorobenzene derivatives” (Scientific Reports, 2024).
Entries after “also recorded” stand apart in the source; their conditions may differ.

Experiments:
5 dpf larval zebrafish [1] = test: Zebrafish behavioral model of anesthesia, spontaneous movement (SM); format: in vivo
Procedure: (§1) Figure 2 Screening of PFAL compounds for antagonism of anesthesia. PFAL compounds were screened in 5 dpf zebrafish for their ability to antagonize the anesthetic effects of propofol (panels a, b, c and d) as well as sevoflurane and isoflurane (panels e and f). Each dot represents the data collected from one fish. Spontaneous movement (SM) is the distance of spontaneous swimming in a 4 min period, and elicited movement (EM) is distance moved in 1 s after exposure to a tap stimulus. Both measures were scaled to same-day DMSO controls. […] Mean and 95% CI are shown for each data set. Statistical comparison with both DMSO (D) only (black asterisks) and anesthetic control (Ctrl, gray asterisks) groups are shown. Note that each DMSO comparison is to the DMSO only control (sample on the furthest left of each graph, and the anesthetic control comparisons are made within each anesthetic grouping as indicated by the bars along the x-axis of each graph. ns: P > 0.05, *: P ≤ 0.05, **: P ≤ 0.01, ***: P ≤ 0.001, ****: P ≤ 0.0001).
(§2) Behavioral experiments (screening, EC50 curves) were performed as previously reported. Antagonism after induction was conducted in a similar manner with different timepoints and solution changes as indicated. The DanioVision Observation Chamber (Noldus) and Ethovision XT16 software were used to track and record (1280 × 960 resolution at 25 frames per second) larval zebrafish (5 dpf) movement in glass 96-well plates (Zissner North America 3,600,500). All experiments were performed at 28 °C with the DanioVision Temperature Control Unit. Zebrafish were allowed to equilibrate in E3 and 2% DMSO (with or without drug) for 10 min before being placed in the observation chamber for 22 min of recording. Two different endpoints were used to assess depth of anesthesia: spontaneous movement (SM) and elicited movement (EM). In these measures, fish movement was considered to be non-anesthetized. During each observation, fish were given time to acclimate to the chamber, and minutes 15–19 of the recording were used for analysis of SM. An EM response using the Daniovision tapping device (8 out of 8 intensity, movement response measured for 1 s after stimulus) was also measured at the end of the SM observation period. All recordings were scrutinized by a blind observer for technical errors in tracking to ensure accuracy of zebrafish detection and inaccurate tracking was excluded from further analysis. Toxicity was measured in separate experiments by exposing larvae to compounds for 30 min, transferring to fresh E3, and then observing mortality after exposure. […]

5 dpf larval zebrafish [2] = test: Zebrafish behavioral model of anesthesia, elicited movement (EM, tap stimulus); format: in vivo
Procedure: as §1, §2

5 dpf zebrafish = test: Antagonism of anesthesia after induction (sequential addition); format: in vivo; settings: propofol 3 μM for 10 min, then propofol 3 μM plus 30 μM compound
Procedure: In the above studies, the anesthetic and PFAL compounds were co-administered to the fish simultaneously.
Figure 5 Further Characterization of Propofol Antagonism with Compounds 9 and 10. a and b 5 dpf zebrafish (n = 36) were first anesthetized with 3 μM propofol and then 30 μM of either compound 9 or 10 was added. Between minutes 5 and 10 there is a small gap in the data during which the propofol solution was removed and a solution containing propofol and PFAL compound was added. […] The mean and 95% CI is shown for each data point in all panels.
Behavioral experiments (screening, EC50 curves) were performed as previously reported. Antagonism after induction was conducted in a similar manner with different timepoints and solution changes as indicated. The DanioVision Observation Chamber (Noldus) and Ethovision XT16 software were used to track and record (1280 × 960 resolution at 25 frames per second) larval zebrafish (5 dpf) movement in glass 96-well plates (Zissner North America 3,600,500). […] An EM response using the Daniovision tapping device (8 out of 8 intensity, movement response measured for 1 s after stimulus) was also measured at the end of the SM observation period. […] Toxicity was measured in separate experiments by exposing larvae to compounds for 30 min, transferring to fresh E3, and then observing mortality after exposure.

[3] = molecular target: T1, horse spleen apoferritin (HSAF) (Equus caballus, UniProt P02791); test: 1-Aminoanthracene (1-AMA) competition fluorescence assay; format: binding
T1 construct: model protein HSAF (horse spleen apoferritin); purchased Sigma-Aldrich; host or cells: horse spleen (tissue-derived)
T1 sequence (P02791 2-175 limits assumed): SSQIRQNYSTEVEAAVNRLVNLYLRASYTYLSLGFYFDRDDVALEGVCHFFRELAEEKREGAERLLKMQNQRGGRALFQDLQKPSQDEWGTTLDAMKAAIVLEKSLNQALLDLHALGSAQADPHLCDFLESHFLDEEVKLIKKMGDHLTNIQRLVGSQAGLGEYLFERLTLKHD

[4] = molecular target: T1, horse spleen apoferritin (HSAF); design: method as in doi:10.1055/s-0040-1707287; settings: cited from earlier work
[5] = test system: propofol-sensitive GABAAR; design: method as in PMID 25799399; settings: cited from earlier work
tadpoles = test system: tadpoles; design: method as in PMID 25799399; settings: cited from earlier work
zebrafish = test system: zebrafish; design: method as in PMID 33355437; settings: cited from earlier work
[6] = PFAL compound alone at 10 and 30 μM, versus DMSO control

CC(C)c1cccc(C(C)C)c1F [Compound 9, 1,3-diisopropyl-2-fluorobenzene]
Antagonism of propofol via SM (5 dpf larval zebrafish [1]; 30 μM PFAL compound co-administered with propofol (0.3, 1, 5 μM), screen): showed antagonism of propofol; also recorded: statistically significant antagonism
Antagonism of propofol via SM at 5 μM propofol (5 dpf larval zebrafish [1]; 30 μM PFAL compound, propofol 5 μM): antagonized propofol
IC50 (5 dpf larval zebrafish [1]; Danio rerio, 120 h, 5 dpf zebrafish exposed to 3 μM propofol, Fig. 5d, read-out: IC50 (antagonism of propofol)): 37.5 µM
Spontaneous movement (SM), compound alone (5 dpf larval zebrafish [1]; [6]): increased SM
Increase of propofol EC50 versus propofol alone, spontaneous movement (5 dpf larval zebrafish [1]; propofol plus 30 μM compound, Fig. 4a): ~ tenfold
Elicited movement (EM), compound alone (5 dpf larval zebrafish [2]; [6]): increased EM
Schild-type analysis with EM (5 dpf larval zebrafish [2]; propofol EC50 curves (EM) at various concentrations of the compound, Fig. S6): no such relationship of antagonism was observed
Reversal of established propofol immobility (5 dpf zebrafish): rapid reversal of propofol immobility
Inhibition of 1-AMA binding to HSAF ([3]; 15 μM 1-AMA, 15 μM HSAF dimer, ligand 1 to 125 μM): most potent inhibitors of 1-AMA binding
Shape of IC50 curve for 1-AMA displacement ([3]; Fig. 6b): incomplete inhibition of 1-AMA binding
Binding to the anesthetic site of HSAF [4]: binds to this site
Modulation of a propofol-sensitive GABAAR [5]: no significant modulation
Antagonism of propofol in tadpoles (tadpoles): antagonize propofol
Antagonism of propofol in zebrafish (zebrafish): antagonize propofol
